From US12594293B2, “Use of 6-thio-dG to treat therapy-resistant telomerasepositive pediatric brain tumors” (The Board of Regents of The University of Texas System, priority 2018, dated 2026)

Experiments:
HFF+hTERT cells = experiment: Immunofluorescence and telomere FISH (TIF) assay; assay type: cell-based, human; settings: for effect on 6-thio-dG-induced TIFs: 10 μM of ATM or 50 nM ATR specific inhibitor 2 hours prior to and with 3 μM 6-thio-dG for 48 hours
Procedure: Immunofluorescence and telomere FISH assay. Cells were fixed with 4% paraformaldehyde (PFA) for 15 minutes. Cells were then washed, permeabilized with 0.5% Triton-X-100 in PBS, blocked with 5% donkey serum and 0.3% Triton X-100 in TBS and incubated with primary antibodies against γH2A.X (1:500, rabbit), or cleaved caspase-3 (1:400, rabbit) (Cell Signaling); and/or TRF2 (1:200) (Mouse; NOVUS), as applicable, for overnight followed by TBST wash (×3) next day. Corresponding secondary antibodies were added (Alexa-Fluor 488- or 594-conjugated donkey anti-rabbit, or anti-mouse (1:500) (Jackson ImmunoResearch) for 1 hour and washed with TBS (×3) before mounting. For telomere-FISH, fixed and permeabilized cells were dehydrated with a graded ethanol concentration series, air-dried and covered with hybridization solution (70% formamide, 0.5% Blocking Reagent (Roche Diagnostics) diluted in 100 mM maleic acid and 150 mM sodium chloride, and 10 mM Tris (pH 7.5)) with 300 ng/mL PNA(CCCTAA)3-Cy3 (SEQ ID NO: 1) (Biosynthesis, USA), and denatured for 6 minutes at 84° C. followed by hybridization for at least two hours at room temperature. Cells were washed three times with 70% formamide and 10 mM Tris (pH 7.5) and three times with TBS. Finally, they were embedded with mounting media with DAPI (Vector Laboratories H1200).

HFF + hTERT = experiment: Cell growth assay (viable cell count, trypan blue exclusion); assay type: cell-based, human; settings: pre-treated with IMT 2 μM 3 days, then 6-thio-dG 3 μM 3 days
telomerase = experiment: Telomerase activity assay (TRAP) in treated HFF+hTERT cells; assay type: cell-based, human; settings: IMT 2 μM
Procedure: Telomerase activity assay. Telomerase activity was assayed using the TRAPeze Telomerase Detection Kit (Millipore). Cell extracts were prepared according to the manufacturer's protocol. 50-100 ng of total protein was used to assess the telomerase activity by performing polyacrylamide gel (12.5%) electrophoresis.

[1] = children with recurrent CNS malignancies; thrombocytopenia that led to bleeding; cited from earlier work
[2] = tested on: CD138-positive and CD138-negative cancer stem cells; settings: by five weeks; cited from earlier work
[3] = tested on: CD138-negative Multiple Myeloma Cancer Stem Cells; settings: cells from bone marrow aspirates of patients with multiple myeloma; cited from earlier work

Compound | effect on 6-thio-dG-induced TIFs (HFF+hTERT cells) | inhibition of cell growth by 6-thio-dG in the combination treatment (HFF + hTERT) | effect on 6-thio-dG-induced TIF formation (HFF+hTERT cells; IMT 2 μM pre-treatment, then 6-thio-dG 3 μM 3 days) | genomic DNA damage (γH2AX foci) in cells treated with 6-thio-dG (HFF+hTERT cells; IMT 2 μM with 6-thio-dG 3 μM 3 days) | telomerase activity (TRAP assay) (telomerase) | tolerability and efficacy of regimen [1] | colony forming potential [2] | in vitro clonogenic growth [3]
CNCc1ccc(-c2cc(-c3nc(-c4ccc(S(=O)(=O)C(C)C)cc4)cnc3N)on2)cc1 [ATR inhibitor, reference compound] | reduction in the number of cells with TIFs |  |  |  |  |  |  | 
O=c1cc(-c2cccc3c2Sc2ccccc2S3)oc(N2CCOCC2)c1 [ATM inhibitor, reference compound] | reduction in the number of cells with TIFs |  |  |  |  |  |  | 
imetelstat |  | markedly reduced | inhibited 6-thio-dG-induced TIF formation | reduced the genomic DNA damage | inhibition of telomerase activity | intolerable and ineffective | eliminated the colony forming potential | inhibited the in vitro clonogenic growth
